Test results reported in patent US9625458B2, “Biosensor” (priority 2002, dated 2017).
pKd: −log10 of the molar value.

Assays:
[1] = biological target: T1, E. coli arabinose binding protein C64A mutant (Escherichia coli, UniProt P02924, C87A); assay: Arabinose affinity of unconjugated arabinose BP C64A
T1 construct: initiator methionine (N); Gly-Ser-Gly-(His)n or Gly-Ser-(His)n (n = 5, 6 or 10) (C); made in house; host or cells: E. coli BL21-DE3
Text: (§1) Molecular Cloning. […] All clones and mutations were confirmed by nucleotide sequencing.
(§2) Cysteine point mutations were introduced by the PCR overlap method (Ho et al., Gene 77:51-59, 1989). Mutant proteins typically expressed as well as the wild type protein. […] In the case of Fe(III) BP, all mutations were constructed in the E57D background. […] This permitted straightforward determination of Fe(III) affinity by direct titration with Fe(III) citrate at nanomolar concentrations of Fe(III) BP.
(§3) The effect on dissociation constants is determined not only by the attachment site, but also by the nature of the attached fluorophore, as illustrated for arabinose BP. Dissociation constants for arabinose of the five cysteine-substitution mutants (all with the C64A mutation), measured by tryptophan fluorescence, are 5.0 μM (F23C), 3.2 μM (L253C), 3.4 μM (D257C), 7.6 μM (L298C), and 1.6 μM (K301C).

[2] = biological target: T2, E. coli arabinose binding protein variant C64A/D257C (Escherichia coli, UniProt P02924, C87A/D280C); assay: Arabinose affinity by tryptophan fluorescence
T2 construct: initiator methionine (N); Gly-Ser-Gly-(His)n or Gly-Ser-(His)n (n = 5, 6 or 10) (C); made in house; host or cells: E. coli BL21-DE3
Text: as §1, §2, §3

[3] = biological target: T3, E. coli arabinose binding protein variant C64A/K301C (Escherichia coli, UniProt P02924, C87A/K324C); assay: Arabinose affinity by tryptophan fluorescence
T3 construct: initiator methionine (N); Gly-Ser-Gly-(His)n or Gly-Ser-(His)n (n = 5, 6 or 10) (C); made in house; host or cells: E. coli BL21-DE3
Text: as §1, §2, §3

[4] = biological target: T4, E. coli arabinose binding protein variant C64A/L253C (Escherichia coli, UniProt P02924, C87A/L276C); assay: Arabinose affinity by tryptophan fluorescence
T4 construct: initiator methionine (N); Gly-Ser-Gly-(His)n or Gly-Ser-(His)n (n = 5, 6 or 10) (C); made in house; host or cells: E. coli BL21-DE3
Text: as §1, §2, §3

[5] = biological target: T5, E. coli arabinose binding protein variant C64A/F23C (Escherichia coli, UniProt P02924, C87A/F46C); assay: Arabinose affinity by tryptophan fluorescence
T5 construct: initiator methionine (N); Gly-Ser-Gly-(His)n or Gly-Ser-(His)n (n = 5, 6 or 10) (C); made in house; host or cells: E. coli BL21-DE3
Text: as §1, §2, §3

[6] = biological target: T6, E. coli arabinose binding protein variant C64A/L298C (Escherichia coli, UniProt P02924, C87A/L321C); assay: Arabinose affinity by tryptophan fluorescence
T6 construct: initiator methionine (N); Gly-Ser-Gly-(His)n or Gly-Ser-(His)n (n = 5, 6 or 10) (C); made in house; host or cells: E. coli BL21-DE3
Text: as §1, §2, §3

[7] = biological target: T7, E. coli arabinose binding protein variant C64A/L253C, fluorophore conjugate (Escherichia coli, UniProt P02924, C87A/L276C); assay: Fluorimetric titration of fluorophore conjugates
T7 construct: initiator methionine (N); Gly-Ser-Gly-(His)n or Gly-Ser-(His)n (n = 5, 6 or 10) (C); made in house; host or cells: E. coli BL21-DE3
Text: (§4) Molecular Cloning. […] Amplified products were cloned into one of the protein expression vectors pAED4 (Doering, “Functional and structural studies of a small f-actin binding domain” in Ph.D. thesis, Massachusetts Institute of Technology, 1992); pKK223-3 (Brosius & Holy, Proc. Natl. Acad. Sci. USA 81:6929-6933, 1984); or pET vectors (Studier et al., Meth. Enzymol. 185:60-89, 1990) (Novagen). N-terminal oligonucleotide primers were designed to clone only the processed periplasmic form, deleting the signal sequence. The C-terminal primer was designed to append the sequence Gly-Ser-Gly-(His)n or Gly-Ser-(His)n, where n=5, 6, or 10. Two tandem stop codons (TAATGA) follow the last His codon. […] Single amino acid substitutions were generated by overlapping PCR mutagenesis (Ho et al., Gene 77:51-59, 1989). All clones and mutations were confirmed by nucleotide sequencing. In the case of arabinose BP, the single cysteine in the wild type sequence was replaced by alanine to eliminate the possibility of reporter group conjugation to this thiol (Miller et al., J. Biol. Chem. 254:7521-7528, 1979). Additionally the sequence of Fe(III) BP was mutated by substitution of Glu57 with Asp to raise the Kd to a concentration range conveniently measured using Fe(III) citrate.
(§5) Fluorophore conjugation to cysteine-substituted bPBPs. Thiol-reactive fluorophores obtained from Molecular Probes (Eugene, Oreg.) were 5-iodoacetamidofluorescein (fluorescein); N-(1-pyrene) iodoacetamide (pyrene); N,N′-dimethyl-N-(iodoacetyl)-N′-(7-nitrobenz-2-oxa-1,3-diazol-4-yl)ethylenediamide (NBD); N-((2-(iodoacetoxy)ethyl)-N-methyl)amino-7-nitrobenz-2-oxa-1,3-diazole (NBDE); and 6-acryloyl-2-dimethylaminonaphthalene (acrylodan). The styryl and naphthyl dyes JPW4039, JPW4042, and JPW4045 (FIG. 3) were synthesized at the University of Connecticut. All fluorophore conjugation steps were typically carried out at room temperature. To protein at a concentration of 100 μM was added tris-(2-carboxyethyl)phosphine HCl to a five-fold molar excess to reduce intermolecular disulfide bonds. A thiol-reactive fluorophore (20 to 25 mM in acetonitrile or dimethyl sulfoxide) was added in small aliquots to a five-fold molar excess over protein. Conjugation proceeded in the dark at room temperature for 4 hours, or overnight at 4° C. Separation of protein from unreacted fluorophore was achieved by exhaustive dialysis or by size-exclusion chromatography. The efficiency of reporter group attachment was assessed by determination of unreacted thiol with Ellman's reagent (Ellman, Arch. Biochem. Biophys. 74:443-450, 1958) or by measuring the ratio of fluorophore to protein from absorbance spectra of the purified conjugate.
(§6) Fluorimetry. All measurements were conducted with an SLM Aminco-Bowman series 2 fluorimeter, with sample stirring at 25° C. Fluorescence emission spectra were acquired with excitation and emission slit widths of 4 and 8 nm, respectively. Photomultiplier tube potential was maintained between 400 and 800 volts. Protein concentrations were in the range of 50 to 1000 nM. Fluorophore-specific excitation was at the following approximate wavelengths: tryptophan, 290 nm; acrylodan, 390 nm; fluorescein, 485 nm; pyrene, 340 nm; NBD and NBDE, 490 nm; JPW4039, 485 nm; JPW4042, 470 nm; JPW4045, 470 nm.
(§7) Corrections were made for dilution of the protein and for background signal from buffer. Binding curves were fit to binding isotherms using equation 3 or 4, as appropriate.
(§8) Analyte affinity measurements. […] The emission wavelength monitored was that of maximum difference in intensity between the ligand-free and bound states. For each conjugate, fluorescence intensiometric observations were fit to a hyperbolic binding isotherm for a two-state model (Marvin et al., Proc. Natl. Acad. Sci. USA 94:4366-4371, 1997): […]

[8] = biological target: T8, E. coli arabinose binding protein variant C64A/F23C, fluorophore conjugate (Escherichia coli, UniProt P02924, C87A/F46C); assay: Fluorimetric titration of fluorophore conjugates; settings: allosteric site
T8 construct: initiator methionine (N); Gly-Ser-Gly-(His)n or Gly-Ser-(His)n (n = 5, 6 or 10) (C); made in house; host or cells: E. coli BL21-DE3
Text: as §4, §5, §6, §7, §8

[9] = biological target: T9, E. coli arabinose binding protein variant C64A/L298C, fluorophore conjugate (Escherichia coli, UniProt P02924, C87A/L321C); assay: Fluorimetric titration of fluorophore conjugates; settings: allosteric site
T9 construct: initiator methionine (N); Gly-Ser-Gly-(His)n or Gly-Ser-(His)n (n = 5, 6 or 10) (C); made in house; host or cells: E. coli BL21-DE3
Text: as §4, §5, §6, §7, §8

[10] = biological target: T10, E. coli arabinose binding protein variant C64A/D257C, fluorophore conjugate (Escherichia coli, UniProt P02924, C87A/D280C); assay: Fluorimetric titration of fluorophore conjugates; settings: allosteric site
T10 construct: initiator methionine (N); Gly-Ser-Gly-(His)n or Gly-Ser-(His)n (n = 5, 6 or 10) (C); made in house; host or cells: E. coli BL21-DE3
Text: as §4, §5, §6, §7, §8

[11] = biological target: T11, E. coli arabinose binding protein variant C64A/K301C, fluorophore conjugate (Escherichia coli, UniProt P02924, C87A/K324C); assay: Fluorimetric titration of fluorophore conjugates
T11 construct: initiator methionine (N); Gly-Ser-Gly-(His)n or Gly-Ser-(His)n (n = 5, 6 or 10) (C); made in house; host or cells: E. coli BL21-DE3
Text: as §4, §5, §6, §7, §8

[12] = biological target: E. coli histidine binding protein (SEQ ID NO:2) variant E167C, fluorophore conjugate (Escherichia coli, UniProt P0AEU0, E189C); assay: biochemical
Text: as §4, §5
(§9) Fluorimetry. All measurements were conducted with an SLM Aminco-Bowman series 2 fluorimeter, with sample stirring at 25° C. Fluorescence emission spectra were acquired with excitation and emission slit widths of 4 and 8 nm, respectively. Photomultiplier tube potential was maintained between 400 and 800 volts. Protein concentrations were in the range of 50 to 1000 nM. […]
as §8

[13] = biological target: E. coli histidine binding protein (SEQ ID NO:2) variant V163C, fluorophore conjugate (Escherichia coli, UniProt P0AEU0, V185C); assay: biochemical
Text: as §4, §5, §9, §8

[14] = biological target: E. coli histidine binding protein (HBP, SEQ ID NO:2), fluorophore-conjugated cysteine mutants (Escherichia coli, UniProt P0AEU0); settings: read-out: range of Kd; range over conjugates, n=4
Text: Molecular Cloning. […] Amplified products were cloned into one of the protein expression vectors pAED4 (Doering, “Functional and structural studies of a small f-actin binding domain” in Ph.D. thesis, Massachusetts Institute of Technology, 1992); pKK223-3 (Brosius & Holy, Proc. Natl. Acad. Sci. USA 81:6929-6933, 1984); or pET vectors (Studier et al., Meth. Enzymol. 185:60-89, 1990) (Novagen). N-terminal oligonucleotide primers were designed to clone only the processed periplasmic form, deleting the signal sequence. The C-terminal primer was designed to append the sequence Gly-Ser-Gly-(His)n or Gly-Ser-(His)n, where n=5, 6, or 10. Two tandem stop codons (TAATGA) follow the last His codon. […] Additionally the sequence of Fe(III) BP was mutated by substitution of Glu57 with Asp to raise the Kd to a concentration range conveniently measured using Fe(III) citrate.
Fluorophore conjugation to cysteine-substituted bPBPs. […] The efficiency of reporter group attachment was assessed by determination of unreacted thiol with Ellman's reagent (Ellman, Arch. Biochem. Biophys. 74:443-450, 1958) or by measuring the ratio of fluorophore to protein from absorbance spectra of the purified conjugate.
Fluorimetry. […] Fluorescence emission spectra were acquired with excitation and emission slit widths of 4 and 8 nm, respectively. […]

[15] = Acrylodan conjugate, allosteric site
[16] = JPW4039 conjugate, allosteric site

OC1OC[C@H](O)[C@H](O)[C@H]1O (some centres unmarked) [arabinose]
pKd [1]: ~5.66 | pKd [2]: 5.47 | pKd [3]: 5.80 | pKd [4]: 5.49 | pKd [5]: 5.30 | pKd [6]: 5.12 | pKd [7, 15]: 6.16 | pKd ([7]; Fluoresecin conjugate, allosteric site): 4.32 | pKd [7, 16]: 3.78 | pKd ([7]; L253C-NBD conjugate): 3.11 | pKd ([7]; L253C-acrylodan conjugate): 6.15 | pKd ([7]; L253C-fluorescein conjugate): ~4.32 | pKd ([7]; NBD conjugate, allosteric site): 3.11 | pKd ([8]; Acrylodan conjugate): 5.41 | pKd ([8]; Fluorescein conjugate): 5.49 | pKd ([8]; JPW4039 conjugate): 4.42 | pKd ([8]; NBD conjugate): 5.30 | pKd ([9]; Acrylodan conjugate): 4.36 | pKd ([9]; JPW4039 conjugate): 4.15 | pKd ([9]; NBD conjugate): 4.25 | pKd ([10]; Acrylodan conjugate): 4.25 | pKd ([10]; Fluorescein conjugate): 5.40 | pKd ([10]; JPW4039 conjugate): 4.05 | pKd ([10]; NBD conjugate): 4.49 | pKd [11, 15]: 6.34 | pKd ([11]; Fluorescein conjugate, allosteric site): 4.62 | pKd [11, 16]: 4.11 | pKd ([11]; K301C-NBD conjugate): ~4.51 | pKd ([11]; NBD conjugate, allosteric site): 4.51

N[C@@H](Cc1c[nH]cn1)C(=O)O [histidine]
pKd [12]: 7.22 | pKd ([13]; Acrylodan conjugate, peristeric site): 6.40 | pKd ([13]; JPW4042 conjugate, peristeric site): 6.60 | pKd ([13]; NBD conjugate, peristeric site): 5.63 | pKd ([13]; V163C-JPW4042): 6.60 | pKd [14]: 5.63 to 7.22
